From patent US7122569B2, “Ethylene glycol esters as photoactive agents” (priority 1997, dated 2006)

Tests used:
L1210 cells = experiment: In vitro photocytotoxicity on L1210 cells, 690 nm light 5 J/cm^2, MTT; format: cell-based, murine; conditions: 690 nm 5 J/cm^2
Method: (§1) Either L1210 cells or the dendritic cell line D2SC/1 was incubated for one hour at 37° C. with either A-EA6 or BPD-MA. After removal of excess drug, the cells were exposed to 690 nm light at 5 J/cm^2 light. Cell survival was determined 18–24 hours later using the MTT colorimetric assay described in Example 5. Percent cells killed was calculated by reference to cells exposed to light only. […] The open circles represent A-EA6 plus serum; the closed circles represent BPD-MA plus serum; open squares represent A-EA6 in the absence of serum; and closed squares represent BPD-MA in the absence of serum.

[1] = system: dendritic cell line D2SC/1; experiment: In vitro photocytotoxicity on dendritic cell line D2SC/1, 690 nm light 5 J/cm^2, MTT; format: cell-based; conditions: dendritic cells, 5% fetal calf serum, 690 nm 5 J/cm^2
Method: as §1

MHC I receptors = experiment: Surface expression of MHC I receptors on dendritic cells after PDT, flow cytometry; format: cell-based; conditions: 690 nm 5 J/cm^2, 3 hours post-treatment
Method: The cells were treated with 690 nm light at 5 J/cm^2 and then labeled with the appropriate antibody 3 hours post-treatment and assessed by flow cytometry. The results were measured as the percent of the mean channel fluorescence intensity for light-treated control cells.

[2] = system: stress pathway kinases c-jun and HSP27; experiment: PDT effect on stress pathway kinases in HL-60 cells; format: cell-based; conditions: sublethal concentrations
From the text: (§2) The conditions of the study set forth in Example 11 were repeated using HL-60 cells as the target and comparing the effects of A-EA6 and BPD-MA on cytotoxicity, on the mitogenic pathway kinase p70 S6K, and on the stress pathway kinases c-jun and HSP27.

[3] = system: mitogenic pathway kinase p70 S6K; experiment: PDT effect on mitogenic pathway kinase in HL-60 cells; format: cell-based; conditions: sublethal concentrations
From the text: as §2

caspases = experiment: Caspase activation in HL-60 cells after PDT; format: cell-based
Method: The effect on caspase activation in HL-60 cells was also measured. […] This effect is desirable as it is associated with apoptosis. Using apoptosis to remove unwanted cells causes the least effect on surrounding normal cells and tissues.

HL-60 cells = experiment: DNA fragmentation in HL-60 cells after PDT; format: cell-based
M1 tumors = experiment: In vivo photodynamic therapy in mice harboring M1 tumors, tumor-free on day 7; conditions: 1 mg/kg IV, 50 J/cm^2 690 nm
From the text: This was followed by whole body irradiation with 50 J/cm^2 of 690 nm laser light at various times after administration of the drug.

[4] = system: antigen-induced ear swelling; experiment: Immunomodulatory activity, whole-body PDT, suppression of ear swelling; format: in vivo, mice; conditions: red LED light 15 J/cm^2
Method: Flanks of control and test mice were painted with the antigen DMFB and their ears were challenged 5 days later by pasting with the same compound. […] The percent suppression of ear swelling was calculated in comparison to controls.

C=Cc1c(C)c2cc3nc(cc4[nH]c(cc5nc(cc1[nH]2)C(C)=C5CCC(=O)OCCO)c(CCC(=O)OCCO)c4C)C1(C)C3=CC=C(C(=O)OC)C1C(=O)OC (stereo not shown) [A-EA6]
cytotoxicity compared with BPD-MA (L1210 cells; absence of serum): comparable cytotoxicity to BPD-MA | cytotoxicity compared with BPD-MA (L1210 cells; presence of serum): markedly more toxic | LD50 [1]: 2.7 ng/mL | reduction of MHC I mean channel fluorescence vs light-treated control cells (MHC I receptors; 1 ng/ml): approximately 25% | reduction of MHC I mean channel fluorescence vs light-treated control cells (MHC I receptors; 2.5 ng/ml): approximately 25% | activation of stress pathway kinases compared with BPD-MA [2]: stronger activation of the stress pathway kinases | inhibition of mitogenic pathway kinases compared with BPD-MA [3]: stronger inhibition of the mitogenic pathway kinases | caspase activation compared with BPD-MA (caspases): stronger activation of caspases | percent DNA fragmentation compared with BPD-MA (HL-60 cells): effective at lower concentrations than BPD-MA | Day 7 tumor-free animals (M1 tumors; irradiation 15 min post i.v.): 2/2 | Day 7 tumor-free animals (M1 tumors; irradiation 30 min post i.v.): 6/6 | Percent suppression of ear swelling ([4]; 0.3 mg/kg IV): 59% | Percent suppression of ear swelling ([4]; 1.0 mg/kg IV): 68%
